What was measured:
Assay in all cases: Kinase panel, CaNDY 1 µM
Type in all cases: biochemical
Conditions in all cases: CaNDY 1 µM relative to DMSO
CDC2/CycB1 = biological target: T1, CDC2/CycB1 (Homo sapiens, UniProt P06493)
T1 construct: purchased Carna Biosciences
In short: (§1)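 Baculovirus-expressed human kinases (full length, amino-terminal GST, glutathione-Sepharose purified) were incubated with compound for 1 h at RT in 1% DMSO. Phosphorylated and unphosphorylated substrate were resolved by off-chip mobility shift to give percent inhibition.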

CGK2 = biological target: T2, CGK2 (Homo sapiens, UniProt Q13237)
T2 construct: purchased Carna Biosciences
In short: as §1

AurA/TPX2 = biological target: T3, AurA/TPX2 (Homo sapiens, UniProt O14965)
T3 construct: purchased Carna Biosciences
In short: as §1

EPHA3 = biological target: T4, EPHA3 (Homo sapiens, UniProt P29320)
T4 construct: purchased Carna Biosciences
In short: as §1

ABL(E255K) = biological target: T5, ABL(E255K) (Homo sapiens, UniProt P00519, E255K)
T5 construct: purchased Carna Biosciences
In short: as §1

MUSK = biological target: T6, MUSK (Homo sapiens, UniProt O15146)
T6 construct: purchased Carna Biosciences
In short: as §1

MSSK1 = biological target: T7, MSSK1 (Homo sapiens, UniProt Q9UPE1)
T7 construct: purchased Carna Biosciences
In short: as §1

p38β = biological target: T8, p38β (Homo sapiens, UniProt Q15759)
T8 construct: purchased Carna Biosciences
In short: as §1

CDK2/CycE1 = biological target: T9, CDK2/CycE1 (Homo sapiens, UniProt P24941)
T9 construct: purchased Carna Biosciences
In short: as §1

AurA = biological target: T10, AurA (Homo sapiens, UniProt O14965)
T10 construct: purchased Carna Biosciences
In short: as §1

BLK = biological target: T11, BLK (Homo sapiens, UniProt P51451)
T11 construct: purchased Carna Biosciences
In short: as §1

ZAP70 = biological target: T12, ZAP70 (Homo sapiens, UniProt P43403)
T12 construct: purchased Carna Biosciences
In short: as §1

MST3 = biological target: T13, MST3 (Homo sapiens, UniProt Q9Y6E0)
T13 construct: purchased Carna Biosciences
In short: as §1

CaMK2α = biological target: T14, CaMK2α (Homo sapiens, UniProt Q9UQM7)
T14 construct: purchased Carna Biosciences
In short: as §1

MARK4 = biological target: T15, MARK4 (Homo sapiens, UniProt Q96L34)
T15 construct: purchased Carna Biosciences
In short: as §1

PRKX = biological target: T16, PRKX (Homo sapiens, UniProt P51817)
T16 construct: purchased Carna Biosciences
In short: as §1

CHK2 = biological target: T17, CHK2 (Homo sapiens, UniProt O96017)
T17 construct: purchased Carna Biosciences
In short: as §1

FGFR4(V550E) = biological target: T18, FGFR4(V550E) (Homo sapiens, UniProt P22455, V550E)
T18 construct: purchased Carna Biosciences
In short: as §1

HIPK1 = biological target: T19, HIPK1 (Homo sapiens, UniProt Q86Z02)
T19 construct: purchased Carna Biosciences
In short: as §1

DAPK1 = biological target: T20, DAPK1 (Homo sapiens, UniProt P53355)
T20 construct: purchased Carna Biosciences
T20 sequence (P53355 whole entry): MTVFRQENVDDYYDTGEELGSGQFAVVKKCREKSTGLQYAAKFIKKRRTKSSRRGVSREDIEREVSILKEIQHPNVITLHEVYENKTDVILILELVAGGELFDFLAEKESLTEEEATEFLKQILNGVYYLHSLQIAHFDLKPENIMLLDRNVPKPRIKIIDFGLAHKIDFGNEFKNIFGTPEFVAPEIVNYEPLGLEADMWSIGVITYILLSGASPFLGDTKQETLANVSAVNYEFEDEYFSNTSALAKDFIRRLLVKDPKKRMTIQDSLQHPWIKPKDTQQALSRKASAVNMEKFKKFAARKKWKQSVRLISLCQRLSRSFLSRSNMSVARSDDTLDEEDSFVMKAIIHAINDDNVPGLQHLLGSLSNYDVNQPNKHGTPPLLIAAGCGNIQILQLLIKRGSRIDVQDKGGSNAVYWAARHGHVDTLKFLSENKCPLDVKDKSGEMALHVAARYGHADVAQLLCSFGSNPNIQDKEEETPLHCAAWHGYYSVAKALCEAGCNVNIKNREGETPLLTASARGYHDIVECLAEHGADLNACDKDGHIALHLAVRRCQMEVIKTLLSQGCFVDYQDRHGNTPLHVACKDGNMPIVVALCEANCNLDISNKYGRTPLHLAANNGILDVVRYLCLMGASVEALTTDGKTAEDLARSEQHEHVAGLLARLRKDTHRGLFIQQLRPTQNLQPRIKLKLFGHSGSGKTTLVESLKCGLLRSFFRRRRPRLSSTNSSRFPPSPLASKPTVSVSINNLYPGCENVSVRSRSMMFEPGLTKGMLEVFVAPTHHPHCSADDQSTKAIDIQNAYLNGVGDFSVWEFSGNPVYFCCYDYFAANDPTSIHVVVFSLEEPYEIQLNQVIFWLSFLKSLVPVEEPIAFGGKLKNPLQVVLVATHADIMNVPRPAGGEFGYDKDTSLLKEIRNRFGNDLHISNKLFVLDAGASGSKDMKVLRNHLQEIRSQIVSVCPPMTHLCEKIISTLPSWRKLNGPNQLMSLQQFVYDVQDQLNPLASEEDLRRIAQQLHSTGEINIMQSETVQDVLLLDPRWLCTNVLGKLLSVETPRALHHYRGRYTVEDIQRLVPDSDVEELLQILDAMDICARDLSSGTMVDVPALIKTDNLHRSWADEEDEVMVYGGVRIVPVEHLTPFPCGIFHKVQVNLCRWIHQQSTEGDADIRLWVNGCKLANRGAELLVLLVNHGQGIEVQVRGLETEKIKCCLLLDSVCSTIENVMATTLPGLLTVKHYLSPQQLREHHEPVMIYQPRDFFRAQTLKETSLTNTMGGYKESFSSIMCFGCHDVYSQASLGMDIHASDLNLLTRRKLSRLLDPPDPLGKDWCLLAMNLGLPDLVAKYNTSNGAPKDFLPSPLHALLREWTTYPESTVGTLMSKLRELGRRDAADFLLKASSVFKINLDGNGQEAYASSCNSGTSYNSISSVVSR
In short: as §1

KIT(T670I) = biological target: T21, KIT(T670I) (Homo sapiens, UniProt P10721, T670I)
T21 construct: purchased Carna Biosciences
In short: as §1

TEC = biological target: T22, TEC (Homo sapiens, UniProt P42680)
T22 construct: purchased Carna Biosciences
In short: as §1

NEK7 = biological target: T23, NEK7 (Homo sapiens, UniProt Q8TDX7)
T23 construct: purchased Carna Biosciences
In short: as §1

CLK3 = biological target: T24, CLK3 (Homo sapiens, UniProt P49761)
T24 construct: purchased Carna Biosciences
In short: as §1

MELK = biological target: T25, MELK (Homo sapiens, UniProt Q14680)
T25 construct: purchased Carna Biosciences
T25 sequence (Q14680 whole entry): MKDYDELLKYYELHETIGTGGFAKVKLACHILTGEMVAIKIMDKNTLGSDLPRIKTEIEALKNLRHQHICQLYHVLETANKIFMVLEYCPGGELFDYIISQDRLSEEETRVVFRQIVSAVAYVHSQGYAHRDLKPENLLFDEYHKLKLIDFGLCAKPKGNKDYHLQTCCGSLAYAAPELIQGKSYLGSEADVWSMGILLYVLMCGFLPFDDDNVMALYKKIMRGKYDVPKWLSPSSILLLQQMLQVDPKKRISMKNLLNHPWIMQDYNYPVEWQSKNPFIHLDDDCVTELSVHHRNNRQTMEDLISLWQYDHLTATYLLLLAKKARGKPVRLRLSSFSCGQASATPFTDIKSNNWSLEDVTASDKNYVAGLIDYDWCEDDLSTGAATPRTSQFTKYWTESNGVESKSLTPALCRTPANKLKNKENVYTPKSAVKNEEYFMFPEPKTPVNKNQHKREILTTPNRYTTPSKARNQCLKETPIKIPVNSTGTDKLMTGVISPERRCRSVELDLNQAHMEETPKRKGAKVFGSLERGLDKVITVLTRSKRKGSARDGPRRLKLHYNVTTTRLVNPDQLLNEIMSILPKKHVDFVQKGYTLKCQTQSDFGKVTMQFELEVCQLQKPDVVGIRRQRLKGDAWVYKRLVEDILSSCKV
In short: as §1

CDK2/CycA2 = biological target: T26, CDK2/CycA2 (Homo sapiens, UniProt P24941)
T26 construct: purchased Carna Biosciences
In short: as §1

FAK = biological target: T27, FAK (Homo sapiens, UniProt Q05397)
T27 construct: purchased Carna Biosciences
In short: as §1

PDGFRα(V561D) = biological target: T28, PDGFRα(V561D) (Homo sapiens, UniProt P16234, V561D)
T28 construct: purchased Carna Biosciences
In short: as §1

CK1γ1 = biological target: T29, CK1γ1 (Homo sapiens, UniProt Q9HCP0)
T29 construct: purchased Carna Biosciences
In short: as §1

RSK2 = biological target: T30, RSK2 (Homo sapiens, UniProt P51812)
T30 construct: purchased Carna Biosciences
In short: as §1

PKD3 = biological target: T31, PKD3 (Homo sapiens, UniProt O94806)
T31 construct: purchased Carna Biosciences
T31 sequence (O94806 whole entry): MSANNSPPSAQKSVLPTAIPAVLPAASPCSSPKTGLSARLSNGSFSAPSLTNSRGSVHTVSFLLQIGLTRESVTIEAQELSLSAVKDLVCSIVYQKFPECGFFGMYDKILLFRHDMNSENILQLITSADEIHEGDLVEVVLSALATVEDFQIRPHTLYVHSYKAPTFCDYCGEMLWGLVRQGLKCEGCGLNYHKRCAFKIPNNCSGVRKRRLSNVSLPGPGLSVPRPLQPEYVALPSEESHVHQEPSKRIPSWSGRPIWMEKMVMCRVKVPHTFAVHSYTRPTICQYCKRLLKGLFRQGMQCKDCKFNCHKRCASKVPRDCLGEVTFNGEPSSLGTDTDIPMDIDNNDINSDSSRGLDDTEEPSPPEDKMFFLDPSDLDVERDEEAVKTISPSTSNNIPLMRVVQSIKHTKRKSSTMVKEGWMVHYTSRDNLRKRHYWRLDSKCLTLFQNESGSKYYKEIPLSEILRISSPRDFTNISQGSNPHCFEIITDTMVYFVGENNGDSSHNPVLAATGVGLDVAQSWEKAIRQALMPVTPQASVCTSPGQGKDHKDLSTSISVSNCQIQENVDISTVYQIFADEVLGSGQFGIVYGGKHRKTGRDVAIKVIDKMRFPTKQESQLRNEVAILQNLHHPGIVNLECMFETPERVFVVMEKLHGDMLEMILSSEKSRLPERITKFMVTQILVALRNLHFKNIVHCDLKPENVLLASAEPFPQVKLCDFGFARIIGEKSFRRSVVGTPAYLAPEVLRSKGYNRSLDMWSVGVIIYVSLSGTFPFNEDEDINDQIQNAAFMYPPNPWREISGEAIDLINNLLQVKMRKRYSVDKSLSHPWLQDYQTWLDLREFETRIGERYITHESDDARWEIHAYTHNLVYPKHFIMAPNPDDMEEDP
In short: as §1

PLK3 = biological target: T32, PLK3 (Homo sapiens, UniProt Q9H4B4)
T32 construct: purchased Carna Biosciences
In short: as §1

WNK2 = biological target: T33, WNK2 (Homo sapiens, UniProt Q9Y3S1)
T33 construct: purchased Carna Biosciences
In short: as §1

PKD1 = biological target: T34, PKD1 (Homo sapiens, UniProt Q15139)
T34 construct: purchased Carna Biosciences
T34 sequence (Q15139 whole entry): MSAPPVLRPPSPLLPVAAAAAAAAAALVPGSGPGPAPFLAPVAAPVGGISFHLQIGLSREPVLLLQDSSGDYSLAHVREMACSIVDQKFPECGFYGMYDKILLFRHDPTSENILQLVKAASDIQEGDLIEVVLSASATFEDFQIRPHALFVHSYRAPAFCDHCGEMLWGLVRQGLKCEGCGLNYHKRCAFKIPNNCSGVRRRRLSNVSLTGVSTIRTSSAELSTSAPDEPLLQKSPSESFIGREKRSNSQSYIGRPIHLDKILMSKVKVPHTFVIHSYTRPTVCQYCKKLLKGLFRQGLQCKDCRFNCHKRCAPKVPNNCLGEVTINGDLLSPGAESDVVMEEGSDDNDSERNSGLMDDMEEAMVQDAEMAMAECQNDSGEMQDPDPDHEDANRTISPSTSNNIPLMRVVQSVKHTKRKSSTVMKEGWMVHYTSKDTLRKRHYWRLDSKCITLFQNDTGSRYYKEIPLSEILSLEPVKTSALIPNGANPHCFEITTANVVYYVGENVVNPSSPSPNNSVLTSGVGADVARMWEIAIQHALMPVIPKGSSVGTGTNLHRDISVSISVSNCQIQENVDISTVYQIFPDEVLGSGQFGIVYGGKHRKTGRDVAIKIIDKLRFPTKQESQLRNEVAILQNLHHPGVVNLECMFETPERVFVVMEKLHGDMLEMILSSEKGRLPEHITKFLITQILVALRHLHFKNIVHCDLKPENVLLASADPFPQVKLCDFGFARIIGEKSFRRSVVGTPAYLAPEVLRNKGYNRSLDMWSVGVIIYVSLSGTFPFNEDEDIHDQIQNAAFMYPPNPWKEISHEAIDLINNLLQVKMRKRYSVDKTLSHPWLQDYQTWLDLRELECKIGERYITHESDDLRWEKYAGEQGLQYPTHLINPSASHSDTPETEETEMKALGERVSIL
In short: as §1

PEK = biological target: T35, PEK (Homo sapiens, UniProt Q9NZJ5)
T35 construct: purchased Carna Biosciences
T35 sequence (Q9NZJ5 30-1116): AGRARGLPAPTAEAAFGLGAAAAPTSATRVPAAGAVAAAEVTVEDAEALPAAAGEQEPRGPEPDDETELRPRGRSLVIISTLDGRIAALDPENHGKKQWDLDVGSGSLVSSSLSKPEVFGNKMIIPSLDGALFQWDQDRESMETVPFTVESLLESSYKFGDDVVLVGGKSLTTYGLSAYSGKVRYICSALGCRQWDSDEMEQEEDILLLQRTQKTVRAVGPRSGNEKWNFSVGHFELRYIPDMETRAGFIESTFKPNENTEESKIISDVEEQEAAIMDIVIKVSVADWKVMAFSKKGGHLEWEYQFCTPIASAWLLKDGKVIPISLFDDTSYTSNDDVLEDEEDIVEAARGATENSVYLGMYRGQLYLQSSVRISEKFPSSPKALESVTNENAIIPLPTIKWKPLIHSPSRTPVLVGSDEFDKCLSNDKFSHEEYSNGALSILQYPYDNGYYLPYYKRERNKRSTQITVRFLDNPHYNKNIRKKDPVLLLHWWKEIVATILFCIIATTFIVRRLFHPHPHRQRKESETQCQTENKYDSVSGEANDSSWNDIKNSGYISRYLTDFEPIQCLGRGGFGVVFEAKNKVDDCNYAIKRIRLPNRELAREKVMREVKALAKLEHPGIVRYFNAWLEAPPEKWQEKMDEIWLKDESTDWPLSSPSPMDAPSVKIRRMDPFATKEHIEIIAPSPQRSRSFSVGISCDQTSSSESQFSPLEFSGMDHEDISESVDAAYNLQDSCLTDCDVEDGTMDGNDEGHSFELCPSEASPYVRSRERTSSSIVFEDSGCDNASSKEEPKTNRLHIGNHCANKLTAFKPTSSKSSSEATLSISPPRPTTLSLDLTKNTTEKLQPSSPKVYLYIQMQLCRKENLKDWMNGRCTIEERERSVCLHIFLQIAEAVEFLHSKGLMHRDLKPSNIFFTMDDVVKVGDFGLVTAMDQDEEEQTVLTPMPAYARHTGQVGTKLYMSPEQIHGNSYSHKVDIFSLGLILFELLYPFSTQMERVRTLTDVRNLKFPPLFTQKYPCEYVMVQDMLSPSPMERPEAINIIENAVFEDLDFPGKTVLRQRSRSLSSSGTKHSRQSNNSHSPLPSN
In short: as §1

PKACβ = biological target: T36, PKACβ (Homo sapiens, UniProt P22694)
T36 construct: purchased Carna Biosciences
In short: as §1

## [H]/N=C1/NC(=O)C(=Cc2ccc3c(c2)CCO3)S1 [CaNDY, (Z)-5-[(2,3-dihydrobenzofuran-5-yl)methylene]-2-iminothiazolidin-4-one]
CDC2/CycB1
  remaining activity at 1 µM: 65.7%
CGK2
  remaining activity at 1 µM: 71.1%
AurA/TPX2
  remaining activity at 1 µM: 98.8%
EPHA3
  remaining activity at 1 µM: 96.3%
ABL(E255K)
  remaining activity at 1 µM: 104%
MUSK
  remaining activity at 1 µM: 98.4%
MSSK1
  remaining activity at 1 µM: 98%
p38β
  remaining activity at 1 µM: 99.7%
CDK2/CycE1
  %Activity: 87.5%
AurA
  remaining activity at 1 µM: 114%
BLK
  remaining activity at 1 µM: 101%
ZAP70
  remaining activity at 1 µM: 95.7%
MST3
  %Activity: 100.2%
CaMK2α
  remaining activity at 1 µM: 104%
MARK4
  %Activity: 94.3%
PRKX
  remaining activity at 1 µM: 97.6%
CHK2
  remaining activity at 1 µM: 97.2%
FGFR4(V550E)
  remaining activity at 1 µM: 102%
HIPK1
  remaining activity at 1 µM: 30.9%
DAPK1
  remaining activity at 1 µM: 80.6%
KIT(T670I)
  remaining activity at 1 µM: 96.6%
TEC
  remaining activity at 1 µM: 103%
NEK7
  remaining activity at 1 µM: 102%
CLK3
  %Activity: 16.5%
MELK
  remaining activity at 1 µM: 91.5%
CDK2/CycA2
  %Activity: 86.3%
FAK
  remaining activity at 1 µM: 98.5%
PDGFRα(V561D)
  remaining activity at 1 µM: 90.3%
CK1γ1
  %Activity: 83.4%
RSK2
  remaining activity at 1 µM: 91.1%
PKD3
  remaining activity at 1 µM: 85.9%
PLK3
  remaining activity at 1 µM: 95.9%
WNK2
  remaining activity at 1 µM: 101%
PKD1
  remaining activity at 1 µM: 72.9%
PEK
  remaining activity at 1 µM: 90.4%
PKACβ
  remaining activity at 1 µM: 92.5%
